Measured values taken from patent US10300042B2, “Apremilast for the treatment of a liver disease or a liver function abnormality” (Celgene Corporation, priority 2014, dated 2019).

Columns and labels:
[1] = test system: Aspartate Aminotransferase; assay: AST levels in PALACE 1, 2, and 3 clinical studies; format: in vivo, human
Excerpt: (§1) Apremilast was studied in Phase 3 trials in both psoriatic arthritis and psoriasis patient populations and a Phase 2 trial in rheumatoid arthritis patients on background methotrexate. […] The improvement in mild baseline liver function test abnormalities has been observed with apremilast daily use without any prescribed changes in physical activity, social or dietary habits. The majority of the patient populations in both the psoriatic arthritis and psoriasis studies were overweight with the mean BMI for subjects greater than or equal to 30, more than half were consuming alcoholic beverages regularly, approximately 60% were taking methotrexate at an average dose of […], and 70% were using non-steroidal anti-inflammatory drugs (NSAIDs). […] During the course of the study, there was observed a higher proportion of subjects in the apremilast treatment groups (both 20 mg BID and 30 mg BID) with normal LFTs (i.e. normal levels of ALT and AST) at subsequent placebo-controlled study visits at week 4, week 16, and week 24 (See Tables 1 to 10 from PALACE 1, 2, and 3 studies).

PDE1 = PDE1 enzyme assay; format: biochemical; settings: at 10 μM
Protocol: (§2) PDE1, 2, 3 and 5 enzyme assays were prepared as described by Hidaka and Asano. Biochem. Biophys. Acta., 1976, 429:485; see also Nicholsen et al., Trends Pharmaco. Sci., 1991, 12:19. The PDE6 enzyme assay was prepared according to Baehr et al., J. Biol. Chem., 1979, 254:11669 and Gillespie et al., Mol. Pharm., 1989, 36: 773. The PDE7 enzyme assay was prepared according to Bloom and Beavo. Proc. Natl. Acad. Sci. USA, 1996, 93:14188-92.

PDE5 = PDE5 (Homo sapiens, UniProt O76074); assay: PDE5 enzyme assay; format: biochemical
Protocol: as §2

Alanine Aminotransferase = assay: ALT levels in PALACE 1, 2, and 3 clinical studies; format: in vivo, human
Excerpt: as §1

[2] = test system: Aspartate Aminotransferase; assay: AST levels in PSOR-008 and PSOR-009 (plaque psoriasis); format: in vivo, human; settings: for AST High, % of patients / AST Low, % of patients / AST Normal, % of patients: Week 16, 30 mg BID
Protocol: Apremilast was studied in Phase 3 trials in patients with moderate to severe plaque psoriasis. […] The improvement in mild baseline liver function test abnormalities has been observed with apremilast daily use without any prescribed changes in physical activity, social or dietary habits. During the course of the study, there was observed a higher proportion of subjects in the apremilast treatment group (30 mg BID) with normal LFTs (i.e. normal levels of ALT and AST) at subsequent placebo-controlled study visits at week 16. See Tables 11 to 16 from PSOR-008 and PSOR-009 studies.

PDE2 = PDE2 (Homo sapiens, UniProt O00408); assay: PDE2 enzyme assay; format: biochemical
Protocol: as §2

[3] = Baseline High, Week 24, 20 mg BID
[4] = Baseline High, Week 24, 30 mg BID
[5] = Baseline Normal, Week 24, 20 mg BID
[6] = Baseline Normal, Week 24, 30 mg BID
[7] = Baseline Total, Week 24, 20 mg BID
[8] = Baseline Total, Week 24, 30 mg BID
[9] = 30 BID, end of treatment (week 16)

PDE2, sequence (O00408 whole entry): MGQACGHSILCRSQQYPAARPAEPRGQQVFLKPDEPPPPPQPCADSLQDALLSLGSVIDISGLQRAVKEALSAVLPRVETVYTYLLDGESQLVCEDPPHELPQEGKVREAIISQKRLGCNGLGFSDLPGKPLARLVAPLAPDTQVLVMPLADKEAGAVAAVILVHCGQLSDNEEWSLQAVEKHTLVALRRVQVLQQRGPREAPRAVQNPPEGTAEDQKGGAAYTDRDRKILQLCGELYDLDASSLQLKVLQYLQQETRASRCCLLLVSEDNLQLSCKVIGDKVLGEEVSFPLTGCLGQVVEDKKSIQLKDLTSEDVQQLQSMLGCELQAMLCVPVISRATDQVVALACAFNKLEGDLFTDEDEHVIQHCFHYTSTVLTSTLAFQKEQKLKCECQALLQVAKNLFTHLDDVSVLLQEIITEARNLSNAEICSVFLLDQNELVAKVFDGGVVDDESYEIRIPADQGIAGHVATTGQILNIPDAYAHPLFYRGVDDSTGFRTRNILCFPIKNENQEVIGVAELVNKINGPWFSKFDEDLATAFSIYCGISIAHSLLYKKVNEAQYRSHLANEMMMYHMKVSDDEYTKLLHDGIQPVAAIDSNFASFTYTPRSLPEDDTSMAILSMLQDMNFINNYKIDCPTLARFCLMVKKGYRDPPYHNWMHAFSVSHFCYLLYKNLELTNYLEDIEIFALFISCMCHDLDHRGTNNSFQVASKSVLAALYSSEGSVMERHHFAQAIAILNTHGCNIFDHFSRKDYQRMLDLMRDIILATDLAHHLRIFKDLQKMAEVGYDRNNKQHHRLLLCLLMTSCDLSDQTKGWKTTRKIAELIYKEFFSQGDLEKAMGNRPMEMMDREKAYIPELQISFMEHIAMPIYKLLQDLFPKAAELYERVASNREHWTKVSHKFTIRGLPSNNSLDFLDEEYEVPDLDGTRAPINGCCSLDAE

Structure (SMILES): CCOc1cc([C@@H](CS(C)(=O)=O)N2C(=O)c3cccc(NC(C)=O)c3C2=O)ccc1OC [Apremilast, (+)-2-[1-(3-ethoxy-4-methoxyphenyl)-2-methylsulfonylethyl]-4-acetylaminoisoindoline-1,3-dione]
- AST High to Normal, percent of patients ([1]; 20 BID, end of treatment): 60.9%
- AST Net Benefit ([1]; 20 BID, end of treatment): 32.6%
- AST Normal to High, percent of patients ([1]; 20 BID, end of treatment): 5.0%
- AST High to Normal, Difference between Placebo and APR 30 BID ([1]; 30 BID, end of treatment): 13.3%
- AST High to Normal, percent of patients ([1]; 30 BID, end of treatment): 73.3%
- AST Net Benefit ([1]; 30 BID, end of treatment): 48.9%
- AST Net Benefit, Difference between Placebo and APR 30 BID ([1]; 30 BID, end of treatment): 23.9%
- AST Normal to High, Difference between Placebo and APR 30 BID ([1]; 30 BID, end of treatment): −6.4%
- AST Normal to High, percent of patients ([1]; 30 BID, end of treatment): 3.8%
- AST High, % of patients [1, 3]: 39.1%
- AST Low, % of patients [1, 3]: 0.0%
- AST Normal, % of patients [1, 3]: 60.9%
- AST High, % of patients [1, 4]: 26.7%
- AST Low, % of patients [1, 4]: 0.0%
- AST Normal, % of patients [1, 4]: 73.3%
- AST High, % of patients [1, 5]: 5.0%
- AST Low, % of patients [1, 5]: 0.0%
- AST Normal, % of patients [1, 5]: 95.0%
- AST High, % of patients [1, 6]: 3.8%
- AST Low, % of patients [1, 6]: 0.0%
- AST Normal, % of patients [1, 6]: 96.2%
- AST High, % of patients [1, 7]: 6.8%
- AST Low, % of patients [1, 7]: 0.0%
- AST Normal, % of patients [1, 7]: 93.2%
- AST High, % of patients [1, 8]: 5.4%
- AST Low, % of patients [1, 8]: 0.0%
- AST Normal, % of patients [1, 8]: 94.6%
- Baseline High AST: High % ([1]; Week 4, 20 mg BID): 38.6%
- Baseline High AST: Normal % ([1]; Week 4, 20 mg BID): 61.4%
- Baseline High AST: Normal % difference from Placebo ([1]; Week 4, 20 mg BID): 9%
- Baseline High AST: High % ([1]; Week 4, 30 mg BID): 42.2%
- Baseline High AST: Normal % ([1]; Week 4, 30 mg BID): 57.8%
- Baseline High AST: Normal % difference from Placebo ([1]; Week 4, 30 mg BID): 5.4%
- Baseline High AST: High % ([1]; Week 16, 20 mg BID): 38.5%
- Baseline High AST: Normal % ([1]; Week 16, 20 mg BID): 61.5%
- Baseline High AST: Normal % difference from Placebo ([1]; Week 16, 20 mg BID): −4.3%
- decrease in the number of patients with normal levels of AST compared to the placebo group ([1]; Week 16, 20 mg BID, stated as a decrease): 4.3%
- Baseline High AST: High % ([1]; Week 16, 30 mg BID): 25.0%
- Baseline High AST: Normal % ([1]; Week 16, 30 mg BID): 75.0%
- Baseline High AST: Normal % difference from Placebo ([1]; Week 16, 30 mg BID): 9.2%
- Baseline High AST: High % ([1]; Week 24, 20 mg BID): 44.4%
- Baseline High AST: Normal % ([1]; Week 24, 20 mg BID): 55.6%
- Baseline High AST: Normal % difference from Placebo ([1]; Week 24, 20 mg BID): 5.6%
- Baseline High AST: High % ([1]; Week 24, 30 mg BID): 24.2%
- Baseline High AST: Normal % ([1]; Week 24, 30 mg BID): 75.8%
- Baseline High AST: Normal % difference from Placebo ([1]; Week 24, 30 mg BID): 25.8%
- % inhibition PDE1 (PDE1): 23%
- inhibition at 10 µM (PDE5): 3%
- ALT High to Normal, percent of patients (Alanine Aminotransferase; 20 BID, end of treatment): 55.3%
- ALT Net Benefit (Alanine Aminotransferase; 20 BID, end of treatment): 40.6%
- ALT Normal to High, percent of patients (Alanine Aminotransferase; 20 BID, end of treatment): 4.5%
- ALT High to Normal, Difference between Placebo and APR 30 BID (Alanine Aminotransferase; 30 BID, end of treatment): 44.4%
- ALT High to Normal, percent of patients (Alanine Aminotransferase; 30 BID, end of treatment): 74.4%
- ALT Net Benefit (Alanine Aminotransferase; 30 BID, end of treatment): 51.8%
- ALT Net Benefit, Difference between Placebo and APR 30 BID (Alanine Aminotransferase; 30 BID, end of treatment): 36.8%
- ALT Normal to High, Difference between Placebo and APR 30 BID (Alanine Aminotransferase; 30 BID, end of treatment): −2.8%
- ALT Normal to High, percent of patients (Alanine Aminotransferase; 30 BID, end of treatment): 4.4%
- ALT High, % of patients (Alanine Aminotransferase; [3]): 44.7%
- ALT Low, % of patients (Alanine Aminotransferase; [3]): 0.0%
- ALT Normal, % of patients (Alanine Aminotransferase; [3]): 55.3%
- ALT High, % of patients (Alanine Aminotransferase; [4]): 25.6%
- ALT Low, % of patients (Alanine Aminotransferase; [4]): 0.0%
- ALT Normal, % of patients (Alanine Aminotransferase; [4]): 74.4%
- ALT High, % of patients (Alanine Aminotransferase; [5]): 4.5%
- ALT Low, % of patients (Alanine Aminotransferase; [5]): 0.0%
- ALT Normal, % of patients (Alanine Aminotransferase; [5]): 95.5%
- ALT High, % of patients (Alanine Aminotransferase; [6]): 4.4%
- ALT Low, % of patients (Alanine Aminotransferase; [6]): 0.0%
- ALT Normal, % of patients (Alanine Aminotransferase; [6]): 95.6%
- ALT High, % of patients (Alanine Aminotransferase; [7]): 8.9%
- ALT Low, % of patients (Alanine Aminotransferase; [7]): 0.0%
- ALT Normal, % of patients (Alanine Aminotransferase; [7]): 91.1%
- ALT High, % of patients (Alanine Aminotransferase; [8]): 6.3%
- ALT Low, % of patients (Alanine Aminotransferase; [8]): 0.0%
- ALT Normal, % of patients (Alanine Aminotransferase; [8]): 93.7%
- Baseline High ALT: High % (Alanine Aminotransferase; Week 4, 20 mg BID): 54.2%
- Baseline High ALT: Normal % (Alanine Aminotransferase; Week 4, 20 mg BID): 45.8%
- Baseline High ALT: Normal % difference from Placebo (Alanine Aminotransferase; Week 4, 20 mg BID): 8.7%
- Baseline High ALT: High % (Alanine Aminotransferase; Week 4, 30 mg BID): 41.1%
- Baseline High ALT: Normal % (Alanine Aminotransferase; Week 4, 30 mg BID): 58.9%
- Baseline High ALT: Normal % difference from Placebo (Alanine Aminotransferase; Week 4, 30 mg BID): 21.8%
- Baseline High ALT: High % (Alanine Aminotransferase; Week 16, 20 mg BID): 36.8%
- Baseline High ALT: Normal % (Alanine Aminotransferase; Week 16, 20 mg BID): 63.2%
- Baseline High ALT: Normal % difference from Placebo (Alanine Aminotransferase; Week 16, 20 mg BID): 12.4%
- Baseline High ALT: High % (Alanine Aminotransferase; Week 16, 30 mg BID): 32.7%
- Baseline High ALT: Normal % (Alanine Aminotransferase; Week 16, 30 mg BID): 67.3%
- Baseline High ALT: Normal % difference from Placebo (Alanine Aminotransferase; Week 16, 30 mg BID): 16.5%
- Baseline High ALT: High % (Alanine Aminotransferase; Week 24, 20 mg BID): 45.1%
- Baseline High ALT: Normal % (Alanine Aminotransferase; Week 24, 20 mg BID): 54.9%
- Baseline High ALT: Normal % difference from Placebo (Alanine Aminotransferase; Week 24, 20 mg BID): 14.9%
- Baseline High ALT: High % (Alanine Aminotransferase; Week 24, 30 mg BID): 23.8%
- Baseline High ALT: Normal % (Alanine Aminotransferase; Week 24, 30 mg BID): 76.2%
- Baseline High ALT: Normal % difference from Placebo (Alanine Aminotransferase; Week 24, 30 mg BID): 36.2%
- AST High to Normal, percent of patients [2, 9]: 60.3%
- AST Net Benefit [2, 9]: 46.3%
- AST Normal to High, percent of patients [2, 9]: 2.8%
- AST High to Normal, Difference (APR 30 BID vs Placebo) ([2]; 30 BID, week 16): 17.9%
- AST Net Benefit, Difference (APR 30 BID vs Placebo) ([2]; 30 BID, week 16): 12.2%
- AST Normal to High, Difference (APR 30 BID vs Placebo) ([2]; 30 BID, week 16): 0.3%
- AST High to Normal, Difference (APR 30 BID vs Placebo) ([2]; 30 BID, week 16, listed as APR): 17.9%
- AST High, % of patients ([2]; Baseline High): 39.7%
- AST Low, % of patients ([2]; Baseline High): 0.0%
- AST Normal, % of patients ([2]; Baseline High): 60.3%
- AST High, % of patients ([2]; Baseline Normal): 2.8%
- AST Low, % of patients ([2]; Baseline Normal): 0.0%
- AST Normal, % of patients ([2]; Baseline Normal): 97.2%
- AST High, % of patients ([2]; Baseline Total): 5.9%
- AST Low, % of patients ([2]; Baseline Total): 0.0%
- AST Normal, % of patients ([2]; Baseline Total): 94.1%
- inhibition at 10 µM (PDE2): 6%
